Measurements reported in the NIST ThermoML archive (doi:10.1021/acs.jced.9b00152).
Numbers after ± are expanded uncertainties.

How the values were obtained:
[1] = Liquid, Ebulliometric method (Recirculating still)
[2] = Boiling temperature at pressure P; settings: Liquid, Ebulliometric method (Recirculating still)

CC(=O)OC(C)C [1-methylethyl ethanoate]
[1]
Settings | vapor or sublimation pressure [kPa]
317.77 K | 20 ± 1
334.75 K | 40 ± 1
345.94 K | 60 ± 1
354.29 K | 80 ± 1
361.79 K | 101.3 ± 1.7

CC(=O)O [acetic acid]
Settings | Boiling temperature at pressure P [°C] | vapor or sublimation pressure [kPa]
[1], 345.03 K | – | 20 ± 1
[1], 363.04 K | – | 40 ± 1
[1], 374.54 K | – | 60 ± 1
[1], 383.32 K | – | 80 ± 1
[1], 390.93 K | – | 101.3 ± 1.6
[2], 17 kPa | 68.2 ± 0.47 | –
[2], 18.47 kPa | 69.72 ± 0.54 | –
[2], 20.01 kPa | 71.88 ± 0.58 | –
[2], 21.29 kPa | 73.26 ± 0.55 | –
[2], 23.18 kPa | 75.34 ± 0.58 | –
[2], 24.92 kPa | 77.20 ± 0.59 | –
[2], 27.44 kPa | 79.73 ± 0.6 | –
[2], 29.78 kPa | 81.86 ± 0.6 | –
[2], 32.78 kPa | 84.39 ± 0.61 | –
[2], 34.97 kPa | 86.11 ± 0.61 | –
[2], 39.99 kPa | 89.89 ± 0.6 | –
[2], 48.99 kPa | 95.41 ± 0.64 | –
[2], 55.76 kPa | 99.12 ± 0.67 | –
[2], 60.04 kPa | 101.39 ± 0.67 | –
[2], 64.44 kPa | 103.51 ± 0.68 | –
[2], 69.39 kPa | 105.90 ± 0.7 | –
[2], 75.23 kPa | 108.5 ± 0.67 | –
[2], 79.98 kPa | 110.17 ± 0.67 | –
[2], 83.66 kPa | 111.67 ± 0.7 | –
[2], 87.18 kPa | 112.92 ± 0.68 | –
[2], 97.08 kPa | 116.43 ± 0.73 | –
[2], 101.3 kPa | 117.78 ± 0.71 | –

CCCOC(C)=O [propyl ethanoate]
Settings | Boiling temperature at pressure P [°C] | vapor or sublimation pressure [kPa]
[1], 329.58 K | – | 20 ± 1
[1], 347.21 K | – | 40 ± 1
[1], 358.6 K | – | 60 ± 1
[1], 367.13 K | – | 80 ± 1
[1], 374.66 K | – | 101.3 ± 1.7
[2], 14.9 kPa | 49.47 ± 0.51 | –
[2], 16.6 kPa | 51.86 ± 0.55 | –
[2], 18.56 kPa | 54.62 ± 0.58 | –
[2], 20 kPa | 56.43 ± 0.53 | –
[2], 24.75 kPa | 61.56 ± 0.59 | –
[2], 27.99 kPa | 64.63 ± 0.57 | –
[2], 33.06 kPa | 68.81 ± 0.6 | –
[2], 37.76 kPa | 72.40 ± 0.64 | –
[2], 40.07 kPa | 74.06 ± 0.62 | –
[2], 44.38 kPa | 76.90 ± 0.64 | –
[2], 48.69 kPa | 79.58 ± 0.62 | –
[2], 54.33 kPa | 82.51 ± 0.63 | –
[2], 60.03 kPa | 85.5 ± 0.65 | –
[2], 66.87 kPa | 88.7 ± 0.66 | –
[2], 73.94 kPa | 91.7 ± 0.67 | –
[2], 79.95 kPa | 93.98 ± 0.67 | –
[2], 85.25 kPa | 95.92 ± 0.69 | –
[2], 91.51 kPa | 98.26 ± 0.7 | –
[2], 101.26 kPa | 101.51 ± 0.73 | –
